Source: ChEMBL document CHEMBL1201862, “PubChem BioAssay data set” (2004)
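Tested at 5 concentrations; 48 h exposure; 96-well plates; endpoints linearly interpolated, else capped at highest concentration. GI50 marks 50% less growth.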 Active and inactive are the calls of the source. Rule as the data show it: active = GI50 up to about 1.1 µM and inactive = higher.

Legend:
Test in all cases: NCI tumour cell line growth inhibition, 48 h
[1] = system: 786-0
[2] = system: ACHN
[3] = system: CCRF-CEM
[4] = system: COLO 205
[5] = system: HCC 2998
[6] = system: HOP-62
[7] = system: HOP-92
[8] = system: IGROV-1
[9] = system: KM12
[10] = system: LOX IMVI
[11] = system: M14
[12] = system: MDA-MB-435
[13] = system: NCI-H23
[14] = system: OVCAR-4
[15] = system: SK-MEL-28
[16] = system: SK-MEL-2
[17] = system: SK-OV-3
[18] = system: SNB-19
[19] = system: SW-620
[20] = system: TK-10

| Compound | GI50 [1] | GI50 [2] | GI50 [3] | GI50 [4] | GI50 [5] | GI50 [6] | GI50 [7] | GI50 [8] | GI50 [9] | GI50 [10] | GI50 [11] | GI50 [12] | GI50 [13] | GI50 [14] | GI50 [15] | GI50 [16] | GI50 [17] | GI50 [18] | GI50 [19] | GI50 [20] |
| --- | --- | --- | --- | --- | --- | --- | --- | --- | --- | --- | --- | --- | --- | --- | --- | --- | --- | --- | --- | --- |
| O=c1ccn2n1CCCCC2 | > 100 µM (inactive) | > 100 µM (inactive) | > 100 µM (inactive) | > 100 µM (inactive) | > 100 µM (inactive) | > 100 µM (inactive) | > 100 µM (inactive) | > 100 µM (inactive) | > 100 µM (inactive) | > 100 µM (inactive) | > 100 µM (inactive) | > 100 µM (inactive) | > 100 µM (inactive) | > 100 µM (inactive) | > 100 µM (inactive) | > 100 µM (inactive) | > 100 µM (inactive) | > 100 µM (inactive) | > 100 µM (inactive) | > 100 µM (inactive) |
| COC(=O)c1cc(-c2ccc(-c3ccc(O)cc3)cc2)cc(-c2ccc(-c3ccc(O)cc3)cc2)c1 | 5.98 µM (inactive) | 8.71 µM (inactive) | 14.8 µM (inactive) | 12.6 µM (inactive) | 11.2 µM (inactive) | 12.1 µM (inactive) | 6.62 µM (inactive) | 6.44 µM (inactive) | 2.17 µM (inactive) | 6.14 µM (inactive) | 13.4 µM (inactive) | 10.4 µM (inactive) | 8.51 µM (inactive) | 13.5 µM (inactive) | 13 µM (inactive) | 15.3 µM (inactive) | 15.6 µM (inactive) | 15.5 µM (inactive) | 7.11 µM (inactive) | 13.6 µM (inactive) |
| O=S(=O)(c1ccccc1)n1c(C(O)c2ccccc2)cc2ccccc21 (stereo not given) | 14.1 µM (inactive) | 15.7 µM (inactive) | 9.46 µM (inactive) | 15.9 µM (inactive) | 17.5 µM (inactive) | 17.9 µM (inactive) | 12.7 µM (inactive) | 15.5 µM (inactive) | 15 µM (inactive) | 30.1 µM (inactive) | 14.9 µM (inactive) | 16.6 µM (inactive) | 18.9 µM (inactive) | 18.1 µM (inactive) | 19.6 µM (inactive) | 17.1 µM (inactive) | 15 µM (inactive) | 13.7 µM (inactive) | 24 µM (inactive) | 17.3 µM (inactive) |
| CC1OC(OC2C(O[C@@H]3C[C@@H]4CC[C@@H]5[C@H](CC[C@]6(C)C7C(C[C@@H]56)O[C@]5(CC[C@@H](C)CO5)[C@H]7C)[C@@]4(C)C[C@H]3O)OC(CO)C(O)C2O)C(O)C(O)C1O (stereo not given in full) | 1.82 µM (inactive) | 1.75 µM (inactive) | 1.93 µM (inactive) | 1.85 µM (inactive) | 1.82 µM (inactive) | 2 µM (inactive) | 2.8 µM (inactive) | 1.73 µM (inactive) | 2.32 µM (inactive) | 1.78 µM (inactive) | 1.79 µM (inactive) | 1.8 µM (inactive) | 1.82 µM (inactive) | 2.23 µM (inactive) | 1.85 µM (inactive) | 1.78 µM (inactive) | 1.89 µM (inactive) | 2.41 µM (inactive) | 1.93 µM (inactive) | 1.76 µM (inactive) |
| COc1cccc(-c2cc(=O)c3ccccc3o2)c1N | 71 µM (inactive) | > 100 µM (inactive) | > 100 µM (inactive) | 9.93 µM (inactive) | 28.2 µM (inactive) | 18.3 µM (inactive) | > 83.4 µM (inactive) | 87.5 µM (inactive) | > 100 µM (inactive) | > 100 µM (inactive) | 5.56 µM (inactive) | 23 µM (inactive) | 72.9 µM (inactive) | 84.3 µM (inactive) | 10.1 µM (inactive) | 27.4 µM (inactive) | 15 µM (inactive) | 51.9 µM (inactive) | 15.5 µM (inactive) | > 100 µM (inactive) |
| CC(C)CCC(=O)c1ccoc1 [PERILLAKETONE] | > 100 µM (inactive) | > 100 µM (inactive) | > 100 µM (inactive) | > 100 µM (inactive) | > 100 µM (inactive) | > 100 µM (inactive) | > 100 µM (inactive) | > 100 µM (inactive) | > 100 µM (inactive) | > 100 µM (inactive) | > 100 µM (inactive) | > 100 µM (inactive) | > 100 µM (inactive) | > 100 µM (inactive) | > 100 µM (inactive) | > 100 µM (inactive) | > 100 µM (inactive) | > 100 µM (inactive) | > 100 µM (inactive) | > 100 µM (inactive) |
| O=C(N/N=C/c1ccc2c(c1)OCO2)Nc1ccccc1Cl | 3.69 µM (inactive) | 7.43 µM (inactive) | 1.13 µM (inactive) | 0.957 µM (active) | 0.361 µM (active) | 2.61 µM (inactive) | 6.24 µM (inactive) | 0.622 µM (active) | 0.598 µM (active) | 2.95 µM (inactive) | 0.671 µM (active) | 0.171 µM (active) | 1.66 µM (inactive) | 10 µM (inactive) | 9.95 µM (inactive) | 0.556 µM (active) | 2.77 µM (inactive) | 3.7 µM (inactive) | 0.708 µM (active) | 2.15 µM (inactive) |
| COC(=O)[C@@H]1O[C@]12C(CO[Si](C)(C)C(C)(C)C)OC(n1ccc(=O)[nH]c1=O)C2O[Si](C)(C)C(C)(C)C (stereo not given in full) | 20.6 µM (inactive) | 22 µM (inactive) | > 100 µM (inactive) | 24.1 µM (inactive) | 6.87 µM (inactive) | 24 µM (inactive) | 27.4 µM (inactive) | 17.7 µM (inactive) | 31.7 µM (inactive) | 14.8 µM (inactive) | 15.3 µM (inactive) | 23.6 µM (inactive) | 19.8 µM (inactive) | 45.7 µM (inactive) | 25.5 µM (inactive) | 17.4 µM (inactive) | 50.8 µM (inactive) | 22.9 µM (inactive) | 26.1 µM (inactive) | 27.1 µM (inactive) |
| C1CSCCCSCCCSCCCSCCCSCCCSCCCSCCCSC1 | > 100 µM (inactive) | > 100 µM (inactive) | > 100 µM (inactive) | > 100 µM (inactive) | > 100 µM (inactive) | > 100 µM (inactive) | > 100 µM (inactive) | > 100 µM (inactive) | > 100 µM (inactive) | > 100 µM (inactive) | > 100 µM (inactive) | > 100 µM (inactive) | > 100 µM (inactive) | > 100 µM (inactive) | > 100 µM (inactive) | > 100 µM (inactive) | > 100 µM (inactive) | > 100 µM (inactive) | > 100 µM (inactive) | > 100 µM (inactive) |
| Cc1ccc(C(=O)NCc2ccccc2)cc1/N=N/N(C)C | > 100 µM (inactive) | > 75.3 µM (inactive) | 87.7 µM (inactive) | > 100 µM (inactive) | > 100 µM (inactive) | > 100 µM (inactive) | 65 µM (inactive) | > 100 µM (inactive) | 64.4 µM (inactive) | 58.1 µM (inactive) | > 100 µM (inactive) | > 100 µM (inactive) | > 100 µM (inactive) | > 76.2 µM (inactive) | > 96.6 µM (inactive) | > 100 µM (inactive) | > 100 µM (inactive) | > 100 µM (inactive) | > 100 µM (inactive) | > 100 µM (inactive) |
| COC(=O)c1c(O)ccc2c1c1c(n2Cc2cccc(C)c2)C(=O)c2ccccc2C1=O | 11.9 µM (inactive) | 11.2 µM (inactive) | 4.86 µM (inactive) | 1.67 µM (inactive) | 2.7 µM (inactive) | 16.1 µM (inactive) | 6.61 µM (inactive) | 11.4 µM (inactive) | 11 µM (inactive) | 11.7 µM (inactive) | 15 µM (inactive) | 9.82 µM (inactive) | 11.4 µM (inactive) | 6.46 µM (inactive) | 15.3 µM (inactive) | 12.6 µM (inactive) | 11.4 µM (inactive) | 14.1 µM (inactive) | 14.2 µM (inactive) | 12 µM (inactive) |
| O=C1N/C(=N/N=C\C(O)C(O)C(O)C(O)CO)N/C1=C\c1ccc(Cl)cc1 (stereo not given) | 5.9 µM (inactive) | 21.9 µM (inactive) | 4.89 µM (inactive) | 8 µM (inactive) | 12.4 µM (inactive) | 2.72 µM (inactive) | 1.8 µM (inactive) | 12.4 µM (inactive) | 22.1 µM (inactive) | 5.5 µM (inactive) | 3.1 µM (inactive) | 7.14 µM (inactive) | 5.32 µM (inactive) | 7.46 µM (inactive) | 8.55 µM (inactive) | 7.06 µM (inactive) | 16.6 µM (inactive) | 2.73 µM (inactive) | 8.87 µM (inactive) | 4.8 µM (inactive) |
| COc1ccc(OC)c(C(Cc2ccnc3ccccc23)Cc2ccnc3ccccc23)c1 | > 10 µM (inactive) | > 10 µM (inactive) | 8.57 µM (inactive) | 8.04 µM (inactive) | > 10 µM (inactive) | > 10 µM (inactive) | 4.09 µM (inactive) | > 10 µM (inactive) | 7.29 µM (inactive) | 5.36 µM (inactive) | > 10 µM (inactive) | 0.56 µM (active) | > 10 µM (inactive) | 6.11 µM (inactive) | > 10 µM (inactive) | 9.73 µM (inactive) | > 10 µM (inactive) | > 10 µM (inactive) | > 10 µM (inactive) | > 10 µM (inactive) |
| S=c1sc2nc(Cl)nc(Cl)c2s1 | 6.21 µM (inactive) | 13.9 µM (inactive) | 0.598 µM (active) | 7.18 µM (inactive) | 15.3 µM (inactive) | 19.9 µM (inactive) | 5.24 µM (inactive) | 13.8 µM (inactive) | 7.85 µM (inactive) | 9.14 µM (inactive) | 4.16 µM (inactive) | 7.94 µM (inactive) | 16.9 µM (inactive) | 16.6 µM (inactive) | 16.1 µM (inactive) | 11.4 µM (inactive) | 17.7 µM (inactive) | 17.9 µM (inactive) | 6.85 µM (inactive) | 13.6 µM (inactive) |
